From patent US9745311B2, “Substituted pyrrolo[2,3-b]pyrazines as FGFR inhibitors” (Incyte Corporation, priority 2012, dated 2017)
pIC50: −log10 of the molar value. Read-outs that look alike come from different tables or passages of the source.

Tests used:
FGFR1 = FGFR1 (Homo sapiens (Human), UniProt P11362); experiment: FGFR Enzymatic Assay (FGFR1); assay type: biochemical; details: enzyme 0.02 nM, ATP 210 μM
Description: (§1) The inhibitor potency of compounds was measured in an enzyme assay that measures peptide phosphorylation using FRET measurements to detect product formation. Inhibitors were serially diluted in DMSO and a volume of 0.5 μL was transferred to the wells of a 384-well plate. For FGFR3, a 10 μL volume of FGFR3 enzyme (Millipore) diluted in assay buffer (50 mM HEPES, 10 mM MgCl2, 1 mM EGTA, 0.01% Tween-20, 5 mM DTT, pH 7.5) was added to the plate and pre-incubated for 5-10 minutes. Appropriate controls (enzyme blank and enzyme with no inhibitor) were included on the plate. […] The plate was incubated at 25° C. for 1 hr. […] The plate was allowed to equilibrate for ˜1 hr before scanning the wells on a PheraStar plate reader.
(§2) GraphPad prism3 was used to analyze the data. The IC50 values were derived by fitting the data to the equation for a sigmoidal dose-response with a variable slope. Y=Bottom+(Top−Bottom)/(1+10^((Log IC50−X)*HillSlope)) where X is the logarithm of concentration and Y is the response.

FGFR2 = FGFR2 (Homo sapiens (Human), UniProt P21802); experiment: FGFR Enzymatic Assay (FGFR2); assay type: biochemical; details: enzyme 0.01 nM, ATP 100 μM; read-out: FGFR2 IC50;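 note: FRET read-out of peptide phosphorylation by the purified kinase, with enzyme-free blank and uninhibited enzyme as controls, potency from a variable-slope sigmoidal dose-response fit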
Description: as §1, §2

FGFR3 enzyme (Millipore) = FGFR3 enzyme (Millipore) (Homo sapiens (Human), UniProt P22607); details: read-out: FGFR3 IC50, ATP 140 μM
FGFR3 enzyme (Millipore), sequence (P22607 23-806): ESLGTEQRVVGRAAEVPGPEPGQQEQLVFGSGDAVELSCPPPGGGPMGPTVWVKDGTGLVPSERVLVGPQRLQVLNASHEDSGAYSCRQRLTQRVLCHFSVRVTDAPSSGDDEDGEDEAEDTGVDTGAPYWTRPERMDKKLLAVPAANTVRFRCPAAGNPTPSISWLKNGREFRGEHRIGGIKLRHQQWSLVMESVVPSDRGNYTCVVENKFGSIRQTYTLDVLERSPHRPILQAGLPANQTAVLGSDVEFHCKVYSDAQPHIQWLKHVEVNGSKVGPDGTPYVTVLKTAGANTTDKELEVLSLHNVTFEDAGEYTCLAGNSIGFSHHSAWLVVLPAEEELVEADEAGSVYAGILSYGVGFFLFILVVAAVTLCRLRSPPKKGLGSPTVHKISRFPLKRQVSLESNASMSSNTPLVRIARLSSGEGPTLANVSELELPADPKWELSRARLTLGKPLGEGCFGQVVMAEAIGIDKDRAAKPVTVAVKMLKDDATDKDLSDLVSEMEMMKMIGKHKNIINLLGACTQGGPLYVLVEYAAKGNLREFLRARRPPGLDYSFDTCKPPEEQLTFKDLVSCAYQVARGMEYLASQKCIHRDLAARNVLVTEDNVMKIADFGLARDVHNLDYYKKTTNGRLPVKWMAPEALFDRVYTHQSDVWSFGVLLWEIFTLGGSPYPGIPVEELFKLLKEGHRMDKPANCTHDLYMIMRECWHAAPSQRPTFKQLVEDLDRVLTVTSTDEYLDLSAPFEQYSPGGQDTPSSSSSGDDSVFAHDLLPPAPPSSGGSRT
Description: as §1, §2

FGFR1, sequence (P11362 22-822): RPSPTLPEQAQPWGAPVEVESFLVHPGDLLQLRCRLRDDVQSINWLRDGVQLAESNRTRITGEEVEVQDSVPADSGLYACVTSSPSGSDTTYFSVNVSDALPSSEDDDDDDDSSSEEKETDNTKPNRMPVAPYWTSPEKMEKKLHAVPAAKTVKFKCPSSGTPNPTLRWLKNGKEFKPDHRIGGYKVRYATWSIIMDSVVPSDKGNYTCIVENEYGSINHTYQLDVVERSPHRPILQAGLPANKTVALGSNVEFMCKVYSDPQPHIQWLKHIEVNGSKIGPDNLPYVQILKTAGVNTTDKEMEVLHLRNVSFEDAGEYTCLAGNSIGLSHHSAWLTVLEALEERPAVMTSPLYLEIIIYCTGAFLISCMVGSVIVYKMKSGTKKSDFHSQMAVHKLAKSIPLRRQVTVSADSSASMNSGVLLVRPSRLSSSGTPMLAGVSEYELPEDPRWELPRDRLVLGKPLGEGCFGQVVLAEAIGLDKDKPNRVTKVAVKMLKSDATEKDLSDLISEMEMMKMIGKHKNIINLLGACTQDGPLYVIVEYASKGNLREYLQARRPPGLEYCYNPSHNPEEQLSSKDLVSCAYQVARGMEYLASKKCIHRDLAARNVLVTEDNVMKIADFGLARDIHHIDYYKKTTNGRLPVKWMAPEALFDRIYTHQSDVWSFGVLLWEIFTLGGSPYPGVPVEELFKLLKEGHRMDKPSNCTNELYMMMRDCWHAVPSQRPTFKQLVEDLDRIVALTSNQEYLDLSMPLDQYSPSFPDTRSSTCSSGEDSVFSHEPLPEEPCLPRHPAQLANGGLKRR
FGFR2, sequence (P21802 22-821): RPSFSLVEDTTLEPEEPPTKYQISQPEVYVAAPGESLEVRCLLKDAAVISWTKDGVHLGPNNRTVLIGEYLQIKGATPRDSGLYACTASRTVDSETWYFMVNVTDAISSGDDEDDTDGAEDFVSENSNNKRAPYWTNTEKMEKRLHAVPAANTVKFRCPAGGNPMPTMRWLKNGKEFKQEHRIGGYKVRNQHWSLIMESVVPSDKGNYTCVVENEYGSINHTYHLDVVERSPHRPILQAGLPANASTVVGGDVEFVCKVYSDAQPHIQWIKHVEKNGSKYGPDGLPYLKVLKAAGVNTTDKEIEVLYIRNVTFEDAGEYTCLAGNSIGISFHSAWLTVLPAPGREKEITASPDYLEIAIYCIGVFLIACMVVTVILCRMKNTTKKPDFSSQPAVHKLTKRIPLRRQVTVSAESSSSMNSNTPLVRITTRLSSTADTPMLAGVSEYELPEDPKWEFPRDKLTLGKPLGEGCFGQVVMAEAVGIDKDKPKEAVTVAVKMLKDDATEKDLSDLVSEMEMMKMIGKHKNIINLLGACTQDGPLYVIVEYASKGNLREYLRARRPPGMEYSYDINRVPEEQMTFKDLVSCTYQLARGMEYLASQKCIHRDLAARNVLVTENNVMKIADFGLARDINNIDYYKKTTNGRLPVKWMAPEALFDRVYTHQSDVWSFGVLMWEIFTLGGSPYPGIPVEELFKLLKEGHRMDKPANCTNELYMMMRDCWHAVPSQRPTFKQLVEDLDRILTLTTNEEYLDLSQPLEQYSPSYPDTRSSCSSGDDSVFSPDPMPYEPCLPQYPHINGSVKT

pIC50 (FGFR1)	pIC50 (FGFR2)	pIC50 (FGFR3 enzyme (Millipore); class symbols)	SMILES	pIC50 (FGFR3 enzyme (Millipore); numeric bounds)
> 7.00	> 7.00	> 7.00	COc1cc(OC)c(Cl)c(CCc2cnc3[nH]c(-c4ccc(N5CCN(C)CC5)cc4)cc3n2)c1Cl [Example 49, 2-[2-(2,6-dichloro-3,5-dimethoxyphenyl)ethyl]-6-[4-(4-methylpiperazin-1-yl)phenyl]-5H-pyrrolo[2,3-b]pyrazine]	
> 7.00	> 7.00	> 7.00	COc1cc(CCc2cnc3[nH]c(-c4ccc(C(=O)NC(C)C)c(Cl)c4)cc3n2)cc(OC)c1 [Example 53, 2-Chloro-4-(2-(3,5-dimethoxyphenethyl)-5H-pyrrolo[2,3-b]pyrazin-6-yl)-N-isopropylbenzamide]	
> 7.00	> 7.00	> 7.00	COc1cc(CCc2cnc3[nH]c(-c4ccc(C(=O)N(C)C)c(Cl)c4)cc3n2)cc(OC)c1 [Example 56, 2-Chloro-4-(2-(3,5-dimethoxyphenethyl)-5H-pyrrolo[2,3-b]pyrazin-6-yl)-N,N-dimethylbenzamide]	
> 7.00	> 7.00	> 7.00	CNC(=O)c1ccc(-c2cc3nc(CCc4cc(OC)cc(OC)c4)cnc3[nH]2)cc1F [Example 57, 4-(2-(3,5-Dimethoxyphenethyl)-5H-pyrrolo[2,3-b]pyrazin-6-yl)-2-fluoro-N-methylbenzamide]	
> 7.00	> 7.00	> 7.00	COc1cc(CCc2cnc3[nH]c(-c4ccnc(N5CCNCC5)c4)cc3n2)cc(OC)c1 [Example 64, 2-(3,5-Dimethoxyphenethyl)-6-(2-(piperazin-1-yl)pyridin-4-yl)-5H-pyrrolo[2,3-b]pyrazine]	
> 7.00	> 7.00	> 7.00	COc1cc(CCc2cnc3[nH]c(-c4ccc(N5CCN(CCO)CC5)cc4)cc3n2)cc(OC)c1 [Example 71, 2-(4-(4-(2-(3,5-Dimethoxyphenethyl)-5H-pyrrolo[2,3-b]pyrazin-6-yl)phenyl)piperazin-1-yl)ethanol]	

Continued, molecule first:

SMILES	pIC50 (FGFR1)	pIC50 (FGFR2)	pIC50 (FGFR3 enzyme (Millipore); class symbols)	pIC50 (FGFR3 enzyme (Millipore); numeric bounds)
COc1cc(CCc2cnc3[nH]c(-c4ccc(N5CCN(C)CC5)cc4)cc3n2)c(Cl)c(OC)c1 [Example 48, 2-[2-(2-chloro-3,5-dimethoxyphenyl)ethyl]-6-[4-(4-methylpiperazin-1-yl)phenyl]-5H-pyrrolo[2,3-b]pyrazine]	> 7.00	> 7.00	> 7.00	
COc1cc(CCc2cnc3[nH]c(-c4ccc(N5CCN(C)CC5)cc4)c(C)c3n2)cc(OC)c1 [Example 51, 2-[2-(3,5-dimethoxyphenyl)ethyl]-7-methyl-6-[4-(4-methylpiperazin-1-yl)phenyl]-5H-pyrrolo[2,3-b]pyrazine]	> 7.00	> 7.00	> 7.00	
CCc1c(-c2ccc(N3CCN(C)CC3)cc2)[nH]c2ncc(CCc3cc(OC)cc(OC)c3)nc12 [Example 52, 2-[2-(3,5-dimethoxyphenyl)ethyl]-7-ethyl-6-[4-(4-methylpiperazin-1-yl)phenyl]-5H-pyrrolo[2,3-b]pyrazine]	> 7.00	> 7.00	> 7.00	
COc1cc(CCc2cnc3[nH]c(-c4ccc5c(cnn5C)c4)cc3n2)cc(OC)c1 [Example 62, 2-(3,5-Dimethoxyphenethyl)-6-(1-methyl-1H-indazol-5-yl)-5H-pyrrolo[2,3-b]pyrazine]	> 7.00	> 7.00	> 7.00	
COc1cc(CCc2cnc3[nH]c(-c4cnc5nccnc5c4)cc3n2)cc(OC)c1 [Example 66, 7-(2-(3,5-Dimethoxyphenethyl)-5H-pyrrolo[2,3-b]pyrazin-6-yl)pyrido[2,3-b]pyrazine]	> 7.00	> 7.00		< 5.70
CNC(=O)c1cc(-c2cc3nc(CCc4cc(OC)cc(OC)c4)cnc3[nH]2)ccn1 [Example 73, 4-(2-(3,5-Dimethoxyphenethyl)-5H-pyrrolo[2,3-b]pyrazin-6-yl)-N-methylpicolinamide]	> 7.00	> 7.00	> 7.00	
